# Measurements taken from patent publication US8153817B2, “Synthesis of methyl nonactate derivatives” (Ohio University, priority 2006, dated 2012).
# System: B. subtilis
# Assay: MIC screen against B. subtilis
# Type: cell-based
# Details: Bacillus subtilis; B. subtilis (gram positive); read-out: MIC against B. subtilis
# Method: In comparison ampicillin, which is an antibiotic in wide therapeutic use, has an MIC of 100 μM in this screen.
row,MIC,SMILES
1,100 µM,"CC1(C)S[C@@H]2[C@H](NC(=O)[C@H](N)c3ccccc3)C(=O)N2[C@H]1C(=O)O [ampicillin, reference compound]"

# Same assay, conditions: Bacillus subtilis; Table 1, selected triazoloamides, B. subtilis; read-out: MIC
row,MIC,SMILES
1,2000 µM,C[C@H](C(=O)NC1CCCCC1)[C@@H]1CC[C@H](C[C@@H](C)n2cc(CN3CCN(c4ccccc4)CC3)nn2)O1
2,4000 µM,C[C@H](C(=O)N1CCN(c2ccccc2)CC1)[C@@H]1CC[C@H](C[C@@H](C)n2cc(CN3CCN(c4ccccc4)CC3)nn2)O1
3,500 µM,C[C@H](C(=O)Nc1ccccc1)[C@@H]1CC[C@H](C[C@@H](C)n2cc(CN3CCC(c4ccccc4)CC3)nn2)O1
4,1000 µM,COc1ccc(CNC(=O)[C@@H](C)[C@@H]2CC[C@H](C[C@@H](C)n3cc(CN4CCC(c5ccccc5)CC4)nn3)O2)cc1
5,250 µM,C[C@H](C(=O)NCCc1ccccc1)[C@@H]1CC[C@H](C[C@@H](C)n2cc(-c3ccccc3)nn2)O1
6,2000 µM,C[C@H](C(=O)N1CCOCC1)[C@@H]1CC[C@H](C[C@@H](C)n2cc(CN3CCN(c4ccccc4)CC3)nn2)O1
7,1000 µM,COc1ccc(NC(=O)[C@@H](C)[C@@H]2CC[C@H](C[C@@H](C)n3cc(-c4ccccc4)nn3)O2)cc1
8,4000 µM,C[C@H](C(=O)N(C)C)[C@@H]1CC[C@H](C[C@@H](C)n2cc(-c3ccccc3)nn2)O1
9,2000 µM,C[C@H](C(=O)NC1CCCC1)[C@@H]1CC[C@H](C[C@@H](C)n2cc(CN3CCN(c4ccccc4)CC3)nn2)O1
10,1000 µM,C[C@@H](C(=O)N(C)Cc1ccccc1)[C@H]1CC[C@@H](C[C@H](C)n2cc(CN3CCN(c4ccccc4)CC3)nn2)O1
